# In US20150315179A1, “COMPOUNDS AND METHODS OF TREATING NEUROLOGICAL DISORDERS” (Torrey Pines Institute For Molecular Studies, priority 2014, published 2015):
# Legend:
# [1] = system: Aβ42 levels, NT2 cells stably expressing APP751; assay: Aβ42 ELISA, NT2 stable cells; format: cell-based, human
# Procedure: (5). To confirm the effect of THPI-244 on sAPPα levels in a neuronal cell line and by a tertiary assay, we exposed human Neuron-committed Teratocarcinoma cell line (NT2) stably expressing human APP751 to different concentrations of THPI-244 for 24 h and compared with that of Bryostatin, a classical activator of PKC known to stimulate sAPPα release. […] Levels of sAPPα were measured by ELISA using commercially available kit (cat #27734, IBL-America, Minneapolis, Minn., USA). […] Similar biphasic effect of Bryostatin was confirmed for Aβ42 also, measured again in NT2 stable cells by ELISA (cat # KHB3441, Life Technologies, Grand Island, N.Y., USA). Consistent with sAPPα, THPI-244 decreased Aβ42 levels dose-dependently starting from 50 nM (28%, p<0.05) to 2000 nM (64%, p<0.001) (n=4 independent experiments) (FIG. 1.7). Thus THPI-244 increased non-amyloidogenic processing of APP in NT2 cells.
# [2] = system: sAPPα levels in conditioned medium of NT2 cells; assay: sAPPα immunoblot, NT2 cells with or without TrkA inhibitor; format: cell-based, human; details: 24 h
# Procedure: (3). THPI-244 increases TrkA receptor levels independent of protein kinase C (PKC). Next to clarify whether increased sAPPα levels depends on increased TrkA activation, NT2 cells were treated with THPI-244 with or without TrkA inhibitor (cat # GW 441756, Tocris Bioscience) at 50 nM final concentration. After 24 h, sAPPα levels were quantified from the conditioned medium by immunoblots. […] We next wanted to address whether increased TrkA protein levels by THPI-244 depends on PKC since PKC activators are well-known to induce sAPPα secretion (Etcheberringaray, R., et al., 2004, PNAS, 101, 11141-11146). NT2 cells were similarly treated with THPI-244 at 100 nM with or without PKC inhibitor (GF 109203, cat #0741, Tocris Bioscience) at 1.0 nM and TrkA protein levels were quantified by immunoblots as shown in FIG. 1.10 (right). […] Thus increased sAPPα level by THPI-244 is through upregulation of TrkA receptor independent of PKC.
# C57BL/6 mice = assay: Lethal dose (LD50) study in mice; format: in vivo, mouse
# Source text: Wild-type (WT) C57BL/6 mice aged about 6 months were used in the study. The compound THPI-244 was initially dissolved in 100% DMSO and then diluted to final 10% DMSO with phosphate buffered saline (PBS). […] Among these 6 mice, 3 mice received repeated injections (i.p) of compound THPI-244 for 5 days.
# sAPPα = assay: Mouse brain lysate immunoblot, sAPPα; format: in vivo; details: i.p. 100 mg/kg for 5 days, brain lysates
# Procedure: FIGS. 9.2A and B illustrate that THPI-244 increases TrkA and sAPPα in the mouse brain. FIG. 9.2A illustrates that THPI-244 was administered to mice by i.p. injections at 100 mg/kg body weight for 5 days and the brain lysates were subjected to immunoblots. Specific antibodies were used to detect TrkA and sAPPα. […] Data are mean±SEM, n=3*, p<0.05, ***, p<0.001.
# TrkA = TrkA increase by THPI-244 analogs; format: cell-based
# Source text: The following table illustrates Chemical structures and properties of THPI-244 analogs selected out of 37 analogs, and each have significant sAPPα increasing activity. Toxicity is the minimum dose for toxicity.
structure (smiles),measurement,setting,value
O=C(Cc1ccccc1)N[C@H](CNc1nc(CN2CCN(C(=O)Cc3ccccc3)CC2)cs1)c1ccccc1 [THPI-244],decrease of Aβ42 levels,[1]; 50 nM,28%
same,decrease of Aβ42 levels,[1]; 2000 nM,64%
same,concentration from which Aβ42 decrease is significant,[1]; ELISA,50 nM
same,sAPPα levels,[2]; THPI-244 100 nM with TrkA inhibitor GW 441756 50 nM,132%
same,sAPPα levels,[2]; THPI-244 100 nM,245%
same,death,"C57BL/6 mice; 100 mg/kg i.p., 6 mice, monitored for 5 days",did not result in the death of any of the 6 mice
same,survival,"C57BL/6 mice; 200 mg/kg, single mouse",survived without visible ill effects
same,lethal effect,"C57BL/6 mice; repeated i.p. injections for 5 days, 3 mice",None of the mice showed any lethal effect
same,increase of sAPPα,sAPPα,89%
same,% TrkA ↑,TrkA,99%
